In series [1] the test system is HIV-1 (IIIB strain). Kind of series: Anti-HIV-1 assay: inhibition of virus-induced cytopathicity in acutely infected MT-4 cells (MTT). As to conditions: mean of at least two separate experiments. The series is classed as cell-based. As for the experimental part: (§1) Compounds. Compounds were solubilized in DMSO at 200 mM and then diluted into culture medium.
(§2) Cells and viruses. MT-4, C8166, H9/IIIB and CEM cells were grown at 37° C. in a 5% CO2 atmosphere in RPMI 1640 medium, supplemented with 10% fetal calf serum (FCS), 100 UI/mL penicillin and 100 μg/mL streptomycin. Cell cultures were checked periodically for the absence of mycoplasma contamination with a MycoTect Kit (Gibco). Human immunodeficiency virus type-1 (HIV-1, IIIB strain) was obtained from supernatants of persistently infected H9/IIIB cells.
(§3) Anti-HIV assays. Activity of the compounds against HIV-1 and HIV-2 multiplication in acutely infected cells was based on the inhibition of virus-induced cytopathicity in MT-4 and C8166 cells, respectively. Briefly, 50 μL of culture medium containing 1×10^4 cells were added to each well of flat-bottom microtiter trays containing 50 μl of culture medium with or without various concentrations of the test compounds. Then 20 μL of an HIV suspension containing 100 CCID50 were added. After a 4-day incubation at 37° C., the number of viable cells was determined by the 3-(4,5-dimethylthiazol-[…])-2,5-diphenyltetrazolium bromide (MTT) method. Cytotoxicity of the compounds was evaluated in parallel with their antiviral activity. It was based on the viability of mock-infected cells, as monitored by the MTT method.
(Damage to the host cells serves as the signal in cytopathic effect assays.)

For series [2], the system named is mock-infected MT-4 cells. Description: Cytotoxicity: viability of mock-infected cells by the MTT method. The format is cell-based. Here is the method:
as §1, §2, §3
A general note: Tetrazolium assays rely on reduction of a dye to a coloured formazan, in cell work by metabolically active cells.

[3] abbreviates: MT-4 cells, HIV-1, MTT method, read-out: EC50 (compound dose required to achieve 50% protection of MT-4 cells from HIV-1 induced cytopathogenicity).
Setting [4] is: HIV-1 infected MT-4 cells, MTT method, read-out: EC50: compound dose required to achieve 50% protection of MT-4 cells from HIV-1 induced cytopathogenicity.

Structures are written as SMILES. pEC50: −log10 of the molar value. Read-outs that look alike come from different tables or passages of the source.

By pEC50 is commonly meant the negative decadic logarithm of the EC50, by convention in mol/L. A word on the CC50: it is the concentration at which the toxic effect on the cells reaches its halfway point. On to `CCC(c1ccccc1)c1cc(=O)[nH]c(SC2CCCC2)n1` (racemic) [MC 900], for which the negative logarithm of the EC50 (pEC50) in series [1] (setting [3]) was 6.00. Further, the CC50 in series [2] was > 200 µM. Take `Cc1c([C@@H](C)c2c(F)cccc2F)nc(SC2CCCC2)[nH]c1=O` [MC 1047]: the pEC50 in series [1] (setting [3]) is 8.05. Also, in series [2], the CC50 was > 200 µM. For the compound `CC(C)Sc1nc(C(C)c2ccccc2)cc(=O)[nH]1` (racemic) [MC 890], the pEC50 in series [1] (setting [3]) was 6.05. Besides, in series [2], the CC50 is > 200 µM. Consider `CCC(C)Sc1nc(Cc2ccccc2[N+](=O)[O-])cc(=O)[nH]1` (racemic) [MC 817], for which the pEC50 in series [1] (setting [3]) was 6.60. For the same compound, in series [2], the CC50 is > 200 µM. Consider `Cc1c(Cc2ccccc2)nc(OC2CC(C)CCC2C)[nH]c1=O` (mixture of isomers) [MC 531], for which the pEC50 in series [1] (setting [3]) is 5.46. Moreover, half-maximal cytotoxicity in series [2] (CC50) was put at 138 µM. As usually defined, the melting point is the temperature of the solid-liquid transition. For `Cc1c(Cc2c(F)cccc2F)nc(NC2CCCC2)[nH]c1=O` [MC1050, 2-Cyclopentylamino-6-(2,6-difluorophenylmethyl)-3,4-dihydro-5-methylpyrimidin-4-one], the melting point lay in the range of 115 to 117 °C. Take `CCC(C)Sc1nc(Cc2cccc([N+](=O)[O-])c2)cc(=O)[nH]1` (racemic) [MC 897]: the negative-log EC50 (pEC50) in series [1] (setting [3]) is 6.40. The compound further gave a CC50 in series [2] of 157 µM. Consider `CCC(C)Sc1nc(Cc2ccc([N+](=O)[O-])cc2)cc(=O)[nH]1` (racemic) [MC 863], for which the pEC50 in series [1] (setting [3]) is 5.82. For the same compound, in series [2], half-maximal cytotoxicity (CC50) was put at 151 µM. As for `CCCCNc1nc(C(C)c2c(F)cccc2F)c(C)c(=O)[nH]1` (racemic) [MC 1187], in series [1] (setting [4]), the negative-log EC50 (pEC50) was 8.00. This compound came in with a CC50 in series [2] of 83 µM. With `CCC(c1ccccc1)c1cc(=O)[nH]c(SC2CCCCC2)n1` (racemic) [MC 903], the pEC50 in series [1] (setting [3]) is 5.89. In addition, the CC50 in series [2] was > 200 µM. Consider `Cc1c(C(C)c2c(F)cccc2F)nc(NC2CCCCC2)[nH]c1=O` (racemic) [MC 1181], for which the pEC50 in series [1] (setting [4]) was 7.52. The same compound showed a CC50 in series [2] of 58 µM.

Take `CC(C)Nc1nc(C(C)c2c(F)cccc2F)cc(=O)[nH]1` (racemic) [MC 1191]: in series [1] (setting [4]), the pEC50 was 7.52. This compound also came in with a CC50 in series [2] of 115 µM. As for `CCC(C)Sc1nc(Cc2ccccc2C(F)(F)F)cc(=O)[nH]1` (racemic) [MC 868], the pEC50 in series [1] (setting [3]) is 4.49. Moreover, the CC50 in series [2] was > 200 µM.

Consider `CCC(C)Sc1nc(C(c2ccccc2)c2ccccc2)cc(=O)[nH]1` (racemic) [MC 796], for which the pEC50 in series [1] (setting [3]) was < 4.21. Further, in series [2], it took 61 µM to reach half-maximal cytotoxicity (CC50). For `CCC(C)Sc1nc(Cc2ccccc2C)cc(=O)[nH]1` (racemic) [MC 806] the same measures were 5.74 and > 200 µM.

Turning to `CNc1nc(C(C)c2c(F)cccc2F)cc(=O)[nH]1` (racemic) [MC 1178], the pEC50 in series [1] (setting [3]) was 6.96. Moreover, in series [2], the midpoint of cytotoxicity, the CC50, lay at 106 µM.

Turning to `CCC(C)Sc1nc(Cc2ccc(C)cc2)cc(=O)[nH]1` (racemic) [MC 809], the pEC50 in series [1] (setting [3]) is 6.22. Moreover, the CC50 in series [2] stood at 200 µM. Regarding `CCCCNc1nc(C(C)c2c(F)cccc2F)cc(=O)[nH]1` (racemic) [MC 1189], in series [1] (setting [4]), the pEC50 is 7.52. In addition, the CC50 in series [2] amounted to 52 µM.

On to `CCCCSc1nc(C(C)c2c(F)cccc2F)c(C)c(=O)[nH]1` (racemic) [MC 1175], for which the pEC50 in series [1] (setting [4]) was 8.10. The compound further came in with a CC50 in series [2] of 112 µM. As to `Cc1c(C(C)c2c(F)cccc2F)nc(SC(C)C)[nH]c1=O` (racemic) [MC 1137], the pEC50 in series [1] (setting [4]) is 8.15. Besides, in series [2], it took 200 µM to reach half-maximal cytotoxicity (CC50). As to `CC1CCC(C)C(Oc2nc(Cc3ccccc3)cc(=O)[nH]2)C1` (mixture of isomers) [MC 507], in series [1] (setting [3]), the pEC50 is 5.46. The midpoint of cytotoxicity in series [2], the CC50, lay at 143 µM.

Regarding `Cc1c(C(C)c2c(F)cccc2F)nc(SCC(C)C)[nH]c1=O` (racemic) [MC 1153], in series [1] (setting [4]), the pEC50 was 8.00. Also, in series [2], the CC50 was > 200 µM. For `Cc1c(C(C)c2c(F)cccc2F)nc(SC2CCCCC2)[nH]c1=O` (racemic) [MC 1174] the same measures were 7.74 and > 200 µM.

Take `CC(c1ccccc1)c1cc(=O)[nH]c(SC2CCCC2)n1` (racemic) [MC 892]: in series [1] (setting [3]), the pEC50 is 6.22. In series [2], the CC50 came to 159 µM.

For the compound `CCC(C)Nc1nc(C(C)c2c(F)cccc2F)cc(=O)[nH]1` (mixture of isomers) [MC 1192], in series [1] (setting [4]), the pEC50 is 7.40. In series [2], the CC50 was found to be 86 µM.

`CCC(C)Sc1nc(Cc2ccc(Cl)cc2)cc(=O)[nH]1` (racemic) [MC 859]: the pEC50 in series [1] (setting [3]) was 5.30. Besides, it took 120 µM to reach half-maximal cytotoxicity in series [2] (CC50). In the case of `CCC(C)Sc1nc(Cc2ccc(C(F)(F)F)cc2)cc(=O)[nH]1` (racemic) [MC 959], the pEC50 in series [1] (setting [3]) was 4.60. Besides, in series [2], the 50% cytotoxic concentration (CC50) came out at 200 µM.

With `CCC(C)Sc1nc(Cc2cccc(F)c2)cc(=O)[nH]1` (racemic) [MC 884], the pEC50 in series [1] (setting [3]) was 6.15. Moreover, in series [2], the CC50 is > 200 µM. For `CCC(c1ccccc1)c1cc(=O)[nH]c(SC(C)C)n1` (racemic) [MC 899] the same measures were 6.10 and 200 µM. For `CC1CCC(Oc2nc(Cc3ccccc3)cc(=O)[nH]2)CC1C` (mixture of isomers) [MC 508] the same measures were 5.19 and 58 µM. With `CCC(C)Sc1nc(Cc2ccc(F)cc2)cc(=O)[nH]1` (racemic) [MC 889], the pEC50 in series [1] (setting [3]) was 5.06. Moreover, in series [2], the half-maximal cytotoxic concentration (CC50) was > 200 µM. For `CCC(C)Oc1nc(Cc2c(F)cccc2F)cc(=O)[nH]1` (racemic) [MC 1114], the negative logarithm of the EC50 (pEC50) in series [1] (setting [3]) is 4.60. Also, the CC50 in series [2] amounted to 130 µM. Turning to `CNc1nc(C(C)c2c(F)cccc2F)c(C)c(=O)[nH]1` (racemic) [MC 1170], the pEC50 in series [1] (setting [4]) was 7.52. Moreover, in series [2], the CC50 worked out at 200 µM. On to `CC(c1cc(=O)[nH]c(NC2CCCCC2)n1)c1c(F)cccc1F` (racemic) [MC 1180], for which the negative-log EC50 (pEC50) in series [1] (setting [4]) was 7.70. For the same compound, the CC50 in series [2] came to 56 µM. Turning to `CC1CC(C)CC(Oc2nc(Cc3ccccc3)cc(=O)[nH]2)C1` (mixture of isomers) [MC 512], the pEC50 in series [1] (setting [3]) was 4.52. The CC50 in series [2] was > 200 µM.

For the origin of these results see patent publication US6635636B1, “Substituted 6-benzyl-4-oxopyrimidines, process for their preparation and pharmaceutical compositions containing them” (Idenix Pharmaceuticals, Inc., priority 1998, dated 2003).
